Measurements published in patent US20220372448A1, “CELL LINE AND PRODUCING METHOD THEREOF” (University of Yamanashi, priority 2021, published 2022).

Tested on: replicon replication in VeroE6/Rep #3 cells
Type: cell-based, SARS-CoV-2
Settings: 72 hours

CC(C)C(=O)OC[C@H]1O[C@@H](n2ccc(NO)nc2=O)[C@H](O)[C@@H]1O [EIDD-2801, molnupiravir]
effectiveness rate = (Replicon replication level)/(Cell survival rate): about 0.2 | luciferase activity (index of the replicon replication level) compared with DMSO negative control: significantly decreased
